# ChEMBL document CHEMBL3286321, “Facile Synthesis and Preliminary Structure-Activity Analysis of New Sulfonamides Against Trypanosoma brucei” (ACS Med Chem Lett, 2014)
# pIC50: −log10 of the molar value.
# Legend:
# [1] = system: Trypanosoma brucei brucei; test: Trypanocidal activity against logarithmic phase of Trypanosoma brucei brucei 427 assessed as inhibition of parasite viability after 48 hrs by Alamar blue viability assay; assay type: functional, organism-based; details: Trypanosoma brucei, 427, 48 h
# [2] = Selectivity index, ratio of IC50 for HEK293 cells to IC50 for Trypanosoma brucei brucei 427; assay type: toxicity, cell-based; details: human, read-out: Ratio IC50
# [3] = system: Trypanosoma brucei brucei; test: Trypanocidal activity against logarithmic phase of Trypanosoma brucei brucei 427 assessed as inhibition of parasite viability at 10 uM after 48 hrs by Alamar blue viability assay; assay type: functional; details: Trypanosoma brucei, 427, 48 h
SMILES,pIC50 [1],selectivity ratio [2],inhibition at 10 µM [3] [%]
CCS(=O)(=O)N1CCCc2ccc(NS(=O)(=O)c3cccs3)cc21,5.40,20.8,
CCS(=O)(=O)N1CCCc2ccc(NS(=O)(=O)c3ccccc3F)cc21,,32,
CCS(=O)(=O)N1CCCc2ccc(NS(=O)(=O)c3ccc(F)cc3)cc21,5.11,11.8,
CCS(=O)(=O)N1CCCc2ccc(NS(=O)(=O)c3cccc(F)c3)cc21,5.11,11.2,
CCS(=O)(=O)N1CCCc2ccc(NS(=O)(=O)c3c(F)cccc3F)cc21,,,82
CCS(=O)(=O)N1CCCc2ccc(NS(=O)(=O)c3c(F)c(F)c(F)c(F)c3F)cc21,,,94
CCS(=O)(=O)N1CCCc2ccc(NS(=O)(=O)c3ccc(Br)cc3F)cc21,5.00,9,
CCS(=O)(=O)N1CCCc2ccc(NS(=O)(=O)c3ccc(Br)s3)cc21,4.95,7.7,
CCS(=O)(=O)N1CCCc2ccc(NS(=O)(=O)c3ccc(Cl)s3)cc21,4.88,6.9,
CCS(=O)(=O)N1CCCc2ccc(NS(=O)(=O)c3ccc(C)cc3)cc21,5.47,25.8,
CCS(=O)(=O)Nc1ccc2c(c1)N(S(=O)(=O)CC)CCC2,,,14
CCS(=O)(=O)N1CCCc2ccc(NS(=O)(=O)CC(F)(F)F)cc21,,,18
CCCS(=O)(=O)N1CCCc2ccc(NS(=O)(=O)c3ccc(C)cc3)cc21,5.74,29,
CCCS(=O)(=O)N1CCCc2ccc(NS(=O)(=O)c3ccc(C(C)C)cc3)cc21,5.77,8.9,
CCCS(=O)(=O)N1CCCc2ccc(NS(=O)(=O)c3ccc(-c4ccccc4)cc3)cc21,5.24,16.6,
CCCS(=O)(=O)N1CCCc2ccc(NS(=O)(=O)c3ccccc3F)cc21,5.46,24.3,
CCCS(=O)(=O)N1CCCc2ccc(NS(=O)(=O)c3cccs3)cc21,,,< 10
CCCS(=O)(=O)N1CCCc2ccc(NS(=O)(=O)c3ccccc3C)cc21,,,11
CCCS(=O)(=O)N1CCCc2ccc(NS(=O)(=O)c3cccc(C)c3)cc21,,,< 10
CCCS(=O)(=O)N1CCCc2ccc(NS(=O)(=O)c3ccc(C)cc3C)cc21,5.05,10.4,
CCCS(=O)(=O)N1CCCc2ccc(NS(=O)(=O)c3cc(C)cc(C)c3)cc21,,,< 10
CCCS(=O)(=O)N1CCCc2ccc(NS(=O)(=O)c3c(C)c(C)c(C)c(C)c3C)cc21,5.10,11.4,
O=S(=O)(Nc1ccc2c(c1)N(S(=O)(=O)c1cccs1)CCC2)c1cccs1,,,35
Cc1ccc(S(=O)(=O)Nc2ccc3c(c2)N(S(=O)(=O)c2cccs2)CCC3)cc1,5.51,2.5,
Cc1ccc(S(=O)(=O)N2CCCc3ccc(NS(=O)(=O)c4cccs4)cc32)cc1,5.10,1.7,
Cc1ccc(S(=O)(=O)Nc2ccc3c(c2)N(S(=O)(=O)c2ccc(C)cc2)CCC3)cc1,5.41,1.8,
